Data from US6093730A, “Substituted isoquinoline-3-carboxamides, their preparation and their use as pharmaceuticals” (Hoechst Marion Roussel Deutschland GmbH, priority 1997, dated 2000).
Blank lines part the entries; values can stand above or below the molecule they belong to.

What was measured:
prolyl-4-hydroxylase [1] = molecular target: T1, prolyl-4-hydroxylase (Gallus gallus, UniProt P16924); test: Combined liver perfusion/enzyme assay (prolyl-4-hydroxylase inhibition after rat liver perfusion); format: biochemical, chicken; design: The enzyme is purified from 14 day-old chicken embryos; from tissue; host or cells: 14-day-old chicken embryos; conditions: after 120 min rat liver perfusion; 100 or 50 μg/ml added at t=0 and 60 min
T1 sequence (P16924 1-516): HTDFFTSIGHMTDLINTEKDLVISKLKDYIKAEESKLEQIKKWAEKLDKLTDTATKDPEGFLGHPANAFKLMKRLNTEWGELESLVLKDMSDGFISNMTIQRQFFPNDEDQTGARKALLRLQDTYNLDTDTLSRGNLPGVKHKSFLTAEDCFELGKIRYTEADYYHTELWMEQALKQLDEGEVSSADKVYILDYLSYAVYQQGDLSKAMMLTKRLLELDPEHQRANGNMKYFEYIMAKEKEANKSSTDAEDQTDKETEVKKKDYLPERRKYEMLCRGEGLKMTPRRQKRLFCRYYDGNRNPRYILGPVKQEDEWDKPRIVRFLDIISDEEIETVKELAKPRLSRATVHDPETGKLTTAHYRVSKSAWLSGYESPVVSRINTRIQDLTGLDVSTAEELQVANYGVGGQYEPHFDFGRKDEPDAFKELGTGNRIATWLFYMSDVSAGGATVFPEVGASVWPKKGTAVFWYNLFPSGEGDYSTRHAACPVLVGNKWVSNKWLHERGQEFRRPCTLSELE
T1 sequence (P09102 23-515 partner): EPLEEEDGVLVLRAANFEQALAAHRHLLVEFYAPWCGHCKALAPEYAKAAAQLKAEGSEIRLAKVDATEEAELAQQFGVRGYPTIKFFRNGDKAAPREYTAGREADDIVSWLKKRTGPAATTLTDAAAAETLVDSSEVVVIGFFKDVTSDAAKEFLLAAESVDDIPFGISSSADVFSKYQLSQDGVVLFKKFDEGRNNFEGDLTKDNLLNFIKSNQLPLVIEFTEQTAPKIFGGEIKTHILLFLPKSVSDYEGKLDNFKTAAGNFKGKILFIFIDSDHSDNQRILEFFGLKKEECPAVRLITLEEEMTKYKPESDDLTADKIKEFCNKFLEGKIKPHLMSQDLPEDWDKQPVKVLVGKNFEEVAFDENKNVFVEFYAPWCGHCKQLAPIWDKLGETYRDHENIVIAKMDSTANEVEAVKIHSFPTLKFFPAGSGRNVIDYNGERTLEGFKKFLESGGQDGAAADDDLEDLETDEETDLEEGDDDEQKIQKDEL
Experimental: In order to investigate the inhibitory action of such active proinhibitors, the compounds were employed in perfusion experiments on isolated rat liver. The inhibitory action was then measured in a prolyl-4-hydroxylase assay.
Unfasted male Wistar rats of 200-300 g body weight (Hoe:WISKf(SPF71)) were anesthetized with pentobarbital (5 mg/100 g of body weight i.p.). After cannulation of the portal vein, the liver was washed with 100 ml of heparinized saline solution (5 lU/ml) of 37° C. for 3 min. The fluid left the liver by the incised vena cava. The organ was then removed, attached to the perfusion apparatus and perfused at a flow rate of 30 ml/min with 100 ml of medium for 2 hours under recirculating conditions. Krebs-Ringer buffer containing bovine erythrocytes was used for the perfusion. For this, bovine blood was mixed 1:1 with a citrate solution in the slaughterhouse immediately after removal. This mixture was centrifuged at 6000 rpm for 10 min and the supernatant was removed. This process was repeated once using saline solution and twice using Krebs-Ringer buffer. The final perfusion solution contained 33.3% of the erythrocyte sediment and 66.7% of Krebs-Ringer buffer (Schimassek, H. BIOCHEM. Z. 336 (1963) 460-467).
Perfusion apparatus (Ryoo and Tarver, H.P.S.E.B.M. 128 (1968) 760-72): The central element of the apparatus is a thermostated cylinder having a removable plate for the storage of the organ. The outlet tube is extended and its lower end is attached to a peristaltic pump. Before the return of the perfusate into the organ bath, it is passed through a glass spiral, which serves as a heat exchanger, which keeps the temperature constant at 37° C. At the bottom of the cylinder, the perfusate is aerated with 70 ml of a CO2 /O2 mixture (5:95%) per minute. In order to avoid foam formation, 14 μl of 0.1% strength Genapol® PF-10 solution are added per ml of perfusion solution. Samples for analysis are removed from the perfusate at a position before entry into the perfused organ.
The test substances were added to the perfusion solution at time t=0 and 60 min in concentrations of 100 or 50 μg/ml in each case. After a perfusion time of 120 min, a sample of the perfusion solution was removed for analysis.
The inhibitory activity of the metabolites which are formed in the liver during the two-hour perfusion was determined in an in vitro prolyl-4-hydroxylase assay. The enzyme is purified from 14 day-old chicken embryos as described in the literature (Tuderman et al., EUR.J.BIOCHEM. 52 (1975) 9-16; Kedersha and Berg, COLLAGEN REL. RES. 1 (1981) 345-53). The enzyme test is carried out according to Kaule and Gunzler, ANAL. BIOCHEM. 184 (1990) 291-97). Dose-response curves were obtained by means of dilution series, starting from the undiluted perfusion solution.

prolyl-4-hydroxylase [2] = molecular target: T1, prolyl-4-hydroxylase; test: Inhibition of prolyl-4-hydroxylase (Table I); format: biochemical
Experimental: The inhibition of this enzyme was determined as described by Kaule and Gunzler, ANAL. BIOCHEM.

collagen biosynthesis = conditions: Franklin et al.; cited from earlier work
hydroxyproline formation = test: Carbon tetrachloride-induced liver fibrosis model in rats, inhibition of hydroxyproline formation; format: in vivo, rat; conditions: two weeks with CCl4
Experimental: The antifibrotic action was determined in the model of carbon tetrachloride-induced liver fibrosis. For this, rats were treated twice weekly with CCl4 (1 ml/kg) dissolved in olive oil. The test substance was administered daily, if appropriate even twice daily, orally or intraperitoneally dissolved in a suitable compatible solvent. The extent of the liver fibrosis was determined histologically and the proportion of collagen in the liver was analyzed by hydroxyproline determination as described in Kivirikko et al., ANAL. BIOCHEM. […] The fibrogenesis activity was determined by radioimmunological determination of collagen fragments and procollagen peptides in the serum.
The measurement of the inhibition of hydroxyproline formation by the test substances was based on this level.
Here the experimental animals were treated for two weeks only with carbon tetrachloride, then for the next two weeks with carbon tetrachloride and test substance. The test substances were administered intraperitoneally twice per day in the total amount indicated below in Table II,

liver steatosis = test: Liver steatosis on treatment of male rats; format: in vivo, rat; conditions: up to six weeks, male rats (Fischer F344, Sprague Dawley, Wistar), 2×25 mg/kg i.p/day, in water/NaHCO3
prolyl hydroxylase [3] = conditions: Majamaa et al.; cited from earlier work
prolyl hydroxylase [4] = conditions: Tschank et al.; cited from earlier work
[5] = 20 mg/kg (total), intraperitoneal twice per day
[6] = 40 mg/kg (total), intraperitoneal twice per day

IC50 (prolyl-4-hydroxylase [1]): 7500 nM
SMILES: COc1ccc2c(O)c(C(=O)NCCO)nc(Cl)c2c1 [Example 21, 1-Chloro-4-hydroxy-7-methoxyisoquinoline-3-carboxylic acid N-(2-hydroxyethyl)amide]

IC50 (prolyl-4-hydroxylase [2]; Table I, read-out: IC50): 790 nM
SMILES: COc1ccc2c(O)c(C(=O)NCC(=O)O)nc(Cl)c2c1 [Example 3, N-((1-Chloro-4-hydroxy-7-methoxyisoquinolin-3-yl)carbonyl)glycine]

SMILES: O=C(O)CNC(=O)c1ncc2ccccc2c1O [N-((4-Hydroxyisoquinolin-3-yl)carbonyl)glycine]
in-vivo activity on collagen biosynthesis (collagen biosynthesis): poor

IC50 (prolyl-4-hydroxylase [2]; Table I, read-out: IC50): 660 nM
SMILES: O=C(O)CNC(=O)c1ncc2c(Cl)cccc2c1O [Example 11, N-((8-Chloro-4-hydroxyisoquinolin-3-yl)carbonyl)glycine]

IC50 (prolyl-4-hydroxylase [2]; Table I, read-out: IC50): 350 nM
SMILES: CCCCOc1ccc2cnc(C(=O)NCC(=O)O)c(O)c2c1 [Example 14, N-((6-(1-Butyloxy)-4-hydroxyisoquinolin-3-yl)carbonyl)glycine]

SMILES: O=C(O)CNC(=O)c1nc(Cl)c2ccccc2c1O [Example 9, N-((1-Chloro-4-hydroxyisoquinolin-3-yl)carbonyl)glycine]
IC50 (prolyl-4-hydroxylase [2]): 2300 nM
Change in hydroxyproline formation (hydroxyproline formation; [5]): -67%
Change in hydroxyproline formation (hydroxyproline formation; [6]): -65%
Change in hydroxyproline formation (hydroxyproline formation; 100 mg/kg (total), intraperitoneal twice per day): -58%
Change in hydroxyproline formation (hydroxyproline formation; 100 mg/kg, oral administration): -71%
liver steatosis (liver steatosis): It was not possible to demonstrate any liver steatosis

IC50 (prolyl-4-hydroxylase [2]; Table I, read-out: IC50): 2020 nM
SMILES: CCCCOc1ccc2c(Cl)nc(C(=O)NCC(=O)O)c(O)c2c1 [Example 6, N-(-6-(1-Butyloxy-1-chloro-4-hydroxyisoquinolin-3-yl)carbonyl)glycine]

IC50 (prolyl-4-hydroxylase [1]): 16600 nM
SMILES: CC(C)Oc1ccc2c(Cl)nc(C(=O)NCCO)c(O)c2c1 [Example 20, 1-Chloro-4-hydroxy-6-(2-propyloxy)isoquinoline-3-carboxylic acid N-(2-hydroxyethyl)amide]

IC50 (prolyl-4-hydroxylase [2]; Table I, read-out: IC50): 620 nM
SMILES: O=C(O)CNC(=O)c1nc(Cl)c2cc(OCc3ccccc3)ccc2c1O [Example 8, N-((7-Benzyloxy-1-chloro-4-hydroxyisoquinolin-3-yl)carbonyl)glycine]

IC50 (prolyl-4-hydroxylase [1]): 10500 nM
SMILES: CC(C)Oc1ccc2c(O)c(C(=O)NCCO)nc(Cl)c2c1 [Example 19, 1-Chloro-4-hydroxy-7-(2-propyloxy)isoquinoline-3-carboxylic acid N-(2-hydroxyethyl)amide]
Change in hydroxyproline formation (hydroxyproline formation; [6]): -39%

IC50 (prolyl-4-hydroxylase [2]; Table I, read-out: IC50): 570 nM
SMILES: COc1ccc2c(Cl)nc(C(=O)NCC(=O)O)c(O)c2c1 [Example 4, N-((1-Chloro-4-hydroxy-6-methoxyisoquinolin-3-yl)carbonyl)glycine]

IC50 (prolyl-4-hydroxylase [2]; Table I, read-out: IC50): 660 nM
SMILES: CC(C)Oc1ccc2c(O)c(C(=O)NCC(=O)O)ncc2c1 [Example 15, N-((4-Hydroxy-7-(2-propyloxy)isoquinolin-3-yl)carbonyl)glycine]

IC50 (prolyl-4-hydroxylase [2]; Table I, read-out: IC50): 1340 nM
SMILES: O=C(O)CNC(=O)c1nc(Cl)c2ccc(OCc3ccccc3)cc2c1O [Example 7, N-((6-Benzyloxy-1-chloro-4-hydroxyisoquinolin-3-yl)carbonyl)glycine]

IC50 (prolyl-4-hydroxylase [2]; Table I, read-out: IC50): 700 nM
SMILES: CCCCOc1ccc2c(O)c(C(=O)NCC(=O)O)nc(Cl)c2c1 [Example 5, N-((7-(1-Butyloxy)-1-chloro-4-hydroxyisoquinolin-3-yl)carbonyl)glycine]

IC50 (prolyl-4-hydroxylase [2]; Table I, read-out: IC50): 650 nM
SMILES: COc1cccc2c(O)c(C(=O)NCC(=O)O)ncc12 [Example 12, N-((4-Hydroxy-8-methoxyisoquinolin-3-yl)carbonyl)glycine]

IC50 (prolyl-4-hydroxylase [1]): 6400 nM
SMILES: COc1ccc2c(Cl)nc(C(=O)NCCO)c(O)c2c1 [Example 22, 1-Chloro-4-hydroxy-6-methoxyisoquinoline-3-carboxylic acid N-(2-hydroxyethyl)amide]

SMILES: O=C(O)c1ccc(C(=O)O)nc1 [pyridine-2,5-dicarboxylic acid]
inhibition of prolyl hydroxylase (prolyl hydroxylase [3]): effectively inhibited
activity as inhibitors in cell culture (prolyl hydroxylase [4]): only active as inhibitors in very high concentrations

IC50 (prolyl-4-hydroxylase [2]; Table I, read-out: IC50): 120 nM
SMILES: CC(C)Oc1ccc2c(O)c(C(=O)NCC(=O)O)nc(Cl)c2c1 [Example 1, N-((1-Chloro-4-hydroxy-7-(2-propyloxy)isoquinolin-3-yl)carbonyl)glycine]
Change in hydroxyproline formation (hydroxyproline formation; [5]): -55%

IC50 (prolyl-4-hydroxylase [2]; Table I, read-out: IC50): 9300 nM
SMILES: CCCCOc1ccc2c(O)c(C(=O)NCC(=O)O)ncc2c1 [Example 13, N-((7-(1-Butyloxy)-4-hydroxyisoquinolin-3-yl)carbonyl)glycine]

SMILES: O=C(O)c1ccnc(C(=O)O)c1 [pyridine-2,4-dicarboxylic acid]
inhibition of prolyl hydroxylase (prolyl hydroxylase [3]): effectively inhibited
activity as inhibitors in cell culture (prolyl hydroxylase [4]): only active as inhibitors in very high concentrations

IC50 (prolyl-4-hydroxylase [2]; Table I, read-out: IC50): 3600 nM
SMILES: O=C(O)CNC(=O)c1nc(Cl)c2cc(Cl)c(Cl)cc2c1O [Example 10, N-((1,6,7-Trichloro-4-hydroxyisoquinolin-3-yl)carbonyl)glycine]

IC50 (prolyl-4-hydroxylase [1]): 21700 nM
SMILES: CCCCOc1ccc2c(O)c(C(=O)NCCO)nc(Cl)c2c1 [Example 23, 7-(1-Butyloxy)-1-chloro-4-hydroxyisoquinoline-3-carboxylic acid N-(2-hydroxyethyl)amide]

IC50 (prolyl-4-hydroxylase [2]; Table I, read-out: IC50): 1900 nM
SMILES: CC(C)Oc1ccc2c(Cl)nc(C(=O)NCC(=O)O)c(O)c2c1 [Example 2, N-((1-Chloro-4-hydroxy-6-(2-propyloxy)isoquinolin-3-yl)carbonyl)glycine]
